# “And” between values parts separate entries of the source, which are not always exact repeats. Equal entries are not always repeated. Where two headings read alike, the source gives them in different places.
# Test system: Escherichia coli ATCC 11229
# Settings: for E. coli on sprayed household surfaces: metal plate, wall paper, vinyl tile, 0.06% silver solution
# Protocol: The antimicrobial activities of the coatings on coupons and slides are tested against both Gram-positive (Staphylococcus aureus ATCC 6538) and Gram-negative (Escherichia coli ATCC 11229) bacteria. The following set of steps are executed over a four day period, in order to evaluate the coatings for antimicrobial activity.
# (1) Three colonies are picked from a Petri dish that contains refrigerator stock of E. coli and S. aureus. Each of the colonies is placed into a separate test tube of 5 mL of TSB (tryptic soy broth); (2) the TSB cultures are incubated in a heated shaker; the culture is grown overnight at 37° C. while shaking at 175 rpm.
# (1) 500 μL (0.5 mL) of FINAL E. coli bacteria are placed onto the center of each sterilized coating (24 hour); the same is done with S. aureus; (2) the coupons/coatings are stored for 24 hours in sealed pan by stacking Petri dishes on top of one another; (3) 200 mL of sterile water is added to the bottom of each pan; each pan is enclosed with clear saran wrap and aluminum foil; the Pyrex pans containing the coatings are incubated at room temperature for 24 hours; all inoculations of the coatings are performed in the same laminar flow hood as where the sterilized slides are placed into sterile Petri dishes; the prepared bacterial suspension (0.5 ml) is directly pipetted onto the coating of the slide; the spreading of the innoculum across the surface of the coating is observed and noted.
# (1) 500 μL (0.5 mL) of FINAL E. coli bacteria is placed onto the center of each sterilized coating (0 hour); the same is done with S. aureus; (2) after bacteria are added to the 0 hour coatings, each Petri dish (containing the coating) is submerged with 25 mL of PBS; this immersion stops the viable bacteria from continuing to grow; (3) 100 μL of fluid is removed from coatings dish and placed in the middle of a previously labeled TSA plate; this is done to both agar plates labeled with −1 concentration; before removing the fluid, the surface of the coupon is scratched with a sterile loop to activate movement of bacteria; (4) “hockey sticks” are sterilized with ethanol and flame, to spread solution thoroughly; (5) the concentration of bacteria is diluted by removing 500 μL of the fluid in the coupon dish and placing it into a test tube with 4.5 mL of PBS; this solution is diluted in duplicate by removing 100 μL of the fluid and spreading into TSA plates labeled −2; (6) sterilized “hockey sticks” are used to spread solution thoroughly; (7) 500 μL of fluid from 1st tube prepared in step 5 is removed and placed into 4.5 mL of PBS; this dilution is mixed and 100 μL is removed in duplicate and placed into two new TSA plates labeled −3; (8) sterilized “hockey sticks” are used to spread these dilutions thoroughly; (9) steps 1-8 are repeated for each of the coupons or slides.
# [1] = acetate sprayed with 0.06% w/w AgAOT/isopropanol, 24 h contact time
# [2] = cotton sprayed with 0.06% w/w AgAOT/isopropanol, 24 h contact time
# [3] = linen sprayed with 0.06% w/w AgAOT/isopropanol, 24 h contact time
# [4] = metal plate sprayed with 0.06% Ag+ AgAOT solution, 0 h contact time
# [5] = metal plate sprayed with 0.06% Ag+ AgAOT solution, 24 h contact time
# [6] = polyester sprayed with 0.06% w/w AgAOT/isopropanol, 24 h contact time
# [7] = silk sprayed with 0.06% w/w AgAOT/isopropanol, 0 h contact time
# [8] = silk sprayed with 0.24% w/w AgAOT/isopropanol, 0 h
# [9] = silk sprayed with 0.24% w/w AgAOT/isopropanol, 24 h
# [10] = vinyl tile sprayed with 0.06% Ag+ AgAOT solution, 0 h contact time
# [11] = vinyl tile sprayed with 0.06% Ag+ AgAOT solution, 24 h contact time
# [12] = wall-paper sprayed with 0.06% Ag+ AgAOT solution, 24 h contact time
smiles,measurement,setting,value
CCCCC(CC)COC(=O)CC(C(=O)OCC(CC)CCCC)S(=O)(=O)[O-].[Ag+] (centres unmarked) [AgAOT],E. coli growth on sprayed fabrics,"0.06% Ag AgAOT/isopropanol, 24 h contact time","With the single exception of silk, complete eradication is obtained for each of the other fabrics"
same,"E. coli CFU/mL, Average","acetate sprayed with 0.06% w/w AgAOT/isopropanol, 0 h contact time",3.08E+05 CFU/mL
same,"E. coli CFU/mL, Average",[1],0.00E+00 CFU/mL
same,"E. coli CFU/mL, Run #1-#4",[1],0.00E+00 CFU/mL
same,"E. coli CFU/mL, Average","cotton sprayed with 0.06% w/w AgAOT/isopropanol, 0 h contact time",2.53E+05 CFU/mL
same,"E. coli CFU/mL, Average",[2],0.00E+00 CFU/mL
same,"E. coli CFU/mL, Run #1-#4",[2],0.00E+00 CFU/mL
same,"E. coli CFU/mL, Average","linen sprayed with 0.06% w/w AgAOT/isopropanol, 0 h contact time",1.46E+05 CFU/mL
same,"E. coli CFU/mL, Average",[3],0.00E+00 CFU/mL
same,"E. coli CFU/mL, Run #1-#4",[3],0.00E+00 CFU/mL
same,"E. coli CFU/mL, Avg",[4],3.10E+05 CFU/mL
same,"E. coli CFU/mL, Run #1-#2",[4],3.40E+05 CFU/mL and 2.80E+05 CFU/mL
same,"E. coli CFU/mL, Avg",[5],0.00E+00 CFU/mL
same,"E. coli CFU/mL, Run #1-#2",[5],0.00E+00 CFU/mL
same,E. coli on sprayed household surfaces,0 h contact time (5-10 minutes),does not significantly attenuate E. coli growth
same,E. coli on sprayed household surfaces,24 h contact time,eradicated on each of the samples
same,"E. coli CFU/mL, Average","polyester sprayed with 0.06% w/w AgAOT/isopropanol, 0 h contact time",9.10E+04 CFU/mL
same,"E. coli CFU/mL, Average",[6],0.00E+00 CFU/mL
same,"E. coli CFU/mL, Run #1-#4",[6],0.00E+00 CFU/mL
same,"E. coli CFU/mL, Average","rayon sprayed with 0.06% w/w AgAOT/isopropanol, 0 h contact time",2.88E+05 CFU/mL
same,"E. coli CFU/mL, Average","rayon sprayed with 0.06% w/w AgAOT/isopropanol, 24 h contact time",3.25E+05 CFU/mL
same,"E. coli CFU/mL, Average",[7],2.55E+05 CFU/mL
same,"E. coli CFU/mL, Run #1-#2",[7],2.70E+05 CFU/mL and 2.40E+05 CFU/mL
same,"E. coli CFU/mL, Average","silk sprayed with 0.06% w/w AgAOT/isopropanol, 24 h contact time",2.75E+07 CFU/mL
same,"E. coli CFU/mL, Average",[8],3.38E+05 CFU/mL
same,"E. coli CFU/mL, Run #1-#4",[8],3.20E+05 CFU/mL and 3.60E+05 CFU/mL and 3.10E+05 CFU/mL
same,"E. coli CFU/mL, Average",[9],0.00E+00 CFU/mL
same,"E. coli CFU/mL, Run #1-#4",[9],0.00E+00 CFU/mL
same,"E. coli CFU/mL, Avg",[10],2.60E+05 CFU/mL
same,"E. coli CFU/mL, Run #1-#2",[10],2.30E+05 CFU/mL and 2.90E+05 CFU/mL
same,"E. coli CFU/mL, Avg",[11],0.00E+00 CFU/mL
same,"E. coli CFU/mL, Run #1-#2",[11],0.00E+00 CFU/mL
same,"E. coli CFU/mL, Avg","wall-paper sprayed with 0.06% Ag+ AgAOT solution, 0 h contact time",1.94E+05 CFU/mL
same,"E. coli CFU/mL, Avg",[12],0.00E+00 CFU/mL
same,"E. coli CFU/mL, Run #1-#2",[12],0.00E+00 CFU/mL
